Measurements: US20250073234A1, “COMBINATION THERAPIES INCLUDING PARP1 INHIBITORS” (Cornell University, priority 2022, published 2025)

How the values were obtained:
WPMY-1 cells = assay: qPCR of CAF / stromal activation markers in WPMY-1 cells; type: cell-based, human
Source text: To knock out PARP-1 in WPMY-1 cells, single-guide RNA sequences targeting PARP-1 exon2 were purchased from Synthego and transduced into WPMY-1 cells with recombinant Streptococcus pyogenes Cas9 protein (Truecut Cas9 Protein v2, Thermo), using the Neon Transfection System 1 (Invitrogen) following the manufacturer's protocol and single clones were expanded and screened by protein immunoblotting. To perform AP1-A binding site editing in the SQSTM promoter in WPMY-1 cells, single-guide RNA sequences targeting the human AP1-A binding site (Synthego) was transduced into cells with a Cas9 protein and a single-stranded donor oligonucleotide (ssODN, IDT) using Neon Electroporation System. Single clones were expanded and screened for AP1-A editing by Sanger sequencing. A point mutation to disrupt the API enhancer element in the p62 promoter was introduced by Site Directed Mutagenesis (Stratagene). Knockdown of MCT1, MCT4, FOS, PARP1, PARP2, CD38, ATG5, and SIRT1-7 genes in WPMY-1 cells were achieved by siRNA transfection using Lipofectamine RNAiMAX Transfection Reagent (Invitrogen). Transient overexpression was achieved by transfection using X-tremeGENE HP transfection reagent (Roche). Transfected cells were examined 48 hours after transfection. Establishing stably GFP or RFP expressing cells was achieved by lentivirus-mediated transduction. Lentivirus were produced in HEK293T cells using X-tremeGENE HP transfection reagent (Roche). Virus-containing supernatants were collected 48, 72 and 96 hours after transfection, filtered to eliminate cells, and supplemented with 8 μg/ml polybrene. Cells were infected with three rounds of viral supernatants and selected with puromycin (3 μg/ml). For autophagy or proteasome inhibition, WPMY-1 cells were treated for 12 hours with 100 nM bafilomycin Al or 12 hours with 20 μM of MG132, respectively, or vehicle (DMSO). For PARP1 inhibition, WPMY-1 cells were treated with PJ34 (2 days) or Olaparib (4 days) at the doses indicated in each experiment. For MCT1 inhibition, WPMY-1 cells were treated for 48 hours with 10 μM of AZD3965. For cJUN inhibition, WPMY-1 cells were treated for 48 hours with 10 μM of SP600125. For calpains and caspases inhibition, WPMY-1 cells were treated for 48 hours with 1-20 μM of Calpeptin (Tocris) or z-VAD-FMK (Tocris), respectively. For protein synthesis inhibition, WPMY-1 cells were treated with 50 μg/ml of cycloheximide (Sigma). Conditioned media (CM) was generated by collecting supernatant on day 3. CM was transferred to a 15 ml BD Falcon tube and centrifuged at 1300 rpm for 10 minutes. The supernatant was sterile filtered using a […] (Millex-GV) with a 10 ml syringe barrel. The samples were stored at […] for future experiments. Fractionation of the CM was achieved using Amicon Ultra centrifugal filters (3KUltracel, Millipore). The supernatant was centrifuged at 4000 rpm for 1 hour. The supernatant fraction that was >3 kDa remained above the filter and that which was <3 kDa passed through to the lower chamber. The >3-kDa fraction was resuspended in DMEM to the pre-filtration volume.
Total RNA from mouse tissues, cells and cultured organoids was extracted using the TRIZOL reagent (Invitrogen) and the RNeasy Mini Kit (QIAGEN), followed by DNase treatment. After quantification using a Nanodrop 1000 spectrophotometer (Thermo Scientific), RNA was either processed for RNA-seq or reverse-transcribed using random primers and MultiScribe Reverse Transcriptase (Applied Biosystems). Gene expression was analyzed by amplifying 20 ng of the complementary DNA using the CFX96 Real Time PCR Detection System with SYBR Green Master Mix (BioRad) and primers described in Table S1. The amplification parameters were set at 95° C. for 30 seconds, 58° C. for 30 seconds, and 72° C. for 30 seconds (40 cycles total). Gene expression values for each sample were normalized to the 18s RNA.

PC3 + WPMY-1 tumors = assay: Subcutaneous xenograft co-implantation of PC3 and WPMY-1 cells in NSG mice; type: in vivo, mouse; conditions: Olaparib 40 mg/kg i.p. twice a week, 2 weeks
Protocol: For mouse xenografts using PC3 PCa cells and sgC or sgAP-1 WPMY-1 stromal cells. 7 weeks old NSG mice were surgical castrated and let androgen levels drop for 10 days. Cells were trypsinized washed two times in PBS and resuspend in DMEN. 1×10^6 PC3 and 1×10^6 sgC or sgAP1-A WPMY-1 for each mouse were resuspended in 100 μl DMEM: Matrigel (1:1) and injected subcutaneously into both flanks of immunocompromised NSG mice (PC3+sgC WPMY-1 n=4; PC3+sgAP-1 WPMY-1 n=4). Tumors were allowed to grow for 1 month. Mice were euthanized and tumors were collected and analyzed histologically. For Olaparib treatment in mouse xenografts. PC3 PCa cells and WPMY-1 stromal cells were trypsinized washed two times in PBS and resuspend in DMEN. 1×10^6 PC3 and 1×10^6 WPMY-1 for each mouse were resuspended in 100 μl DMEM: Matrigel (1:1) and injected subcutaneously into both flanks of immunocompromised NSG mice. Tumors were allowed to grow for 14 days, and mouse were randomly divided to receive vehicle, n=10, Olaparib (40 mg/kg, 2 days each week, i.p.), n=10 or Olaparib (40 mg/kg, 2 days each week, i.p.)+_PEGPH20 (0.0375 mg/Kg, 2 days each week, retroorbital injection) n=10. Tumors were measured twice a week. Mice were euthanized 14 days after the initiation of the treatment and tumors were collected and analyzed histologically. For Olaparib treatment in mice, 13 weeks-old male TRAMP^+, n=18, were randomly distributed to receive vehicle, n=9, or Olaparib (40 mg/kg/, 5 days each week, i.p.), n=9. Mice were euthanized 1 month after the initiation of the treatment. Prostate and other organs were collected and analyzed histologically.
Tissues from indicated mice were isolated, fixed in zinc buffered formalin overnight at 4° C., dehydrated, and embedded in paraffin. Sections (5 μm) were stained with hematoxylin and eosin (H&E). For immunohistochemistry, sections were deparaffinized, rehydrated, and then treated for antigen retrieval. […] Stained sections were analyzed with a Zeiss light microscope supplemented with Zen 3.3 Bule edition software.

Compound	CAF markers (ACTA2, SFRP1, TGFB, MMP9, HA synthases) (WPMY-1 cells; Olaparib, basal and ADT conditions)	Has1 and Has3 expression (WPMY-1 cells; basal and ADT conditions)	Tgfb1 levels (WPMY-1 cells; basal and ADT conditions)	SPINK1 levels (WPMY-1 cells; human prostate cells, ADT conditions)	desmoplastic response (collagen, HA, aSMA, p62) (PC3 + WPMY-1 tumors)	tumor growth (weight, volume) (PC3 + WPMY-1 tumors)	lactate-induced expression of CAF activation markers (WPMY-1 cells; lactate plus NAD+, 48 h)
O=C(c1cc(Cc2n[nH]c(=O)c3ccccc23)ccc1F)N1CCN(C(=O)C2CC2)CC1 [Olaparib]	upregulated CAF markers	upregulated	increased levels of Tgfb1	highly upregulated	strong desmoplastic response	efficiently reduced tumor growth	
NC(=O)c1ccc[n+]([C@@H]2O[C@H](COP(=O)([O-])OP(=O)(O)OC[C@H]3O[C@@H](n4cnc5c(N)ncnc54)[C@H](O)[C@@H]3O)[C@@H](O)[C@H]2O)c1 [NAD^+]							reverted
